pIC50: −log10 of the molar value.
Target: T1, Prolyl endopeptidase FAP (Homo sapiens, UniProt Q12884)
T1 sequence (Q12884 whole entry): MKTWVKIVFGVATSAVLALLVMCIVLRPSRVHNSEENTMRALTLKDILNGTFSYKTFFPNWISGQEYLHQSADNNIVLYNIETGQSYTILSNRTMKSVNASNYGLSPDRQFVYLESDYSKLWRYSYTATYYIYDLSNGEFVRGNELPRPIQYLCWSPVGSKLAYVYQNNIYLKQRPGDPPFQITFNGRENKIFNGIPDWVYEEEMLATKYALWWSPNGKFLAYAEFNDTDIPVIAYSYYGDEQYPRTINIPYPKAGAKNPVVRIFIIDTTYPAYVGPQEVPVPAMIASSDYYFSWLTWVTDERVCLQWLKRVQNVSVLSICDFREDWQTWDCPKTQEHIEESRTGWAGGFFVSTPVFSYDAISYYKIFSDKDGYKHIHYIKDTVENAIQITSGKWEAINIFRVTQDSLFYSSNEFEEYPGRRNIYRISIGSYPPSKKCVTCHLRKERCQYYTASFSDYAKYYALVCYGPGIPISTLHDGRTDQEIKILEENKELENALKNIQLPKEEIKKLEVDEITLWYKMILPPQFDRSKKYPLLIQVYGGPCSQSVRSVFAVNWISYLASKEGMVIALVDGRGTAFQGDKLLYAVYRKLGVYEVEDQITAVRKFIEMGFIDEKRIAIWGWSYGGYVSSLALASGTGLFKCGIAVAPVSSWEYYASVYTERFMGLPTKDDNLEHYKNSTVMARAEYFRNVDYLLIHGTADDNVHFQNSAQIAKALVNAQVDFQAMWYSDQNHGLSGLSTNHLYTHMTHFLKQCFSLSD
Assay: In Vitro hFAP Inhibition Assay
Method: FAPI-46 was used as positive control. Experiments were performed in triplicate, and the mean fluorescence values were fitted using Graph Pad Prism 9 (equation used: Y=Bottom+(Top−Bottom)/(1+((X^HillSlope)/(IC50^HillSlope)))).

SMILES	pIC50
N#C[C@@H]1CC(F)(F)CN1C(=O)CNC(=O)c1ccnc2ccc(NC(=O)CCC(=O)N3CCN(C(=O)CCC(C(=O)O)[N+]45CC[N+]67CC[N+]8(CC4)CC(=O)[O][Cu]685[O]C(=O)C7)CC3)cc12 (some centres not stated) [US20240173440, Compound [natCu]Cu-NODAGA-F3]	10.40
CN(C(=O)CCC(=O)NCCNC(=O)CCC(C(=O)O)[N+]12CC[N+]34CC[N+]5(CC1)CC(=O)[O][Cu]352[O]C(=O)C4)c1ccc2nccc(C(=O)NCC(=O)N3CC(F)(F)C[C@H]3C#N)c2c1 (some centres not stated) [US20240173440, Compound [natCu]Cu-NODAGA-F2]	9.92

— BindingDB's records for patent US20240173440 (Nuclidium, 2024)
